In ChEMBL document CHEMBL2380212, “Synthesis, single crystal and antitumor activities of benzimidazole-quinazoline hybrids” (Bioorg Med Chem Lett, 2013):

What was measured:
SF-295 = assay: Cytotoxicity against human SF295 cells at 10 uM after 48 hrs by SRB assay; type: functional; conditions: SF-295, 48 h, read-out: GI
OVCAR-4 = assay: Cytotoxicity against human OVCAR4 cells at 10 uM after 48 hrs by SRB assay; type: functional; conditions: OVCAR-4, 48 h, read-out: GI
HOP-92 = assay: Cytotoxicity against human HOP92 cells at 10 uM after 48 hrs by SRB assay; type: functional; conditions: HOP-92, 48 h, read-out: GI
UACC-62 = assay: Cytotoxicity against human UACC62 cells at 10 uM after 48 hrs by SRB assay; type: functional; conditions: UACC-62, 48 h, read-out: GI
CCRF-CEM = assay: Cytotoxicity against human CCRF-CEM cells at 10 uM after 48 hrs by SRB assay; type: functional; conditions: read-out: GI
RPMI-8226 = assay: Cytotoxicity against human RPMI8226 cells at 10 uM after 48 hrs by SRB assay; type: functional; conditions: RPMI-8226, 48 h, read-out: GI
HOP-62 = assay: Cytotoxicity against human HOP62 cells at 10 uM after 48 hrs by SRB assay; type: functional; conditions: HOP-62, 48 h, read-out: GI
[1] = Cytotoxicity against human EKVX cells at 10 uM after 48 hrs by SRB assay; type: functional; conditions: read-out: GI
NCI-H226 = assay: Cytotoxicity against human NCI-H226 cells at 10 uM after 48 hrs by SRB assay; type: functional; conditions: NCI-H226, 48 h, read-out: GI
ACHN = assay: Cytotoxicity against human ACHN cells at 10 uM after 48 hrs by SRB assay; type: functional; conditions: read-out: GI
MDA-MB-435 = assay: Cytotoxicity against human MDA-MB-435 cells at 10 uM after 48 hrs by SRB assay; type: functional; conditions: MDA-MB-435, 48 h, read-out: GI
SK-OV-3 = assay: Cytotoxicity against human SKOV3 cells at 10 uM after 48 hrs by SRB assay; type: functional; conditions: SK-OV-3, 48 h, read-out: GI
K562 = assay: Cytotoxicity against human K562 cells at 10 uM after 48 hrs by SRB assay; type: functional; conditions: K562, 48 h, read-out: GI
HL-60(TB) = assay: Cytotoxicity against human HL-60(TB) cells at 10 uM after 48 hrs by SRB assay; type: functional; conditions: HL-60, 48 h, read-out: GI
UO-31 = assay: Cytotoxicity against human UO31 cells at 10 uM after 48 hrs by SRB assay; type: functional; conditions: UO-31, 48 h, read-out: GI
CAKI-1 = assay: Cytotoxicity against human Caki1 cells at 10 uM after 48 hrs by SRB assay; type: functional; conditions: CAKI-1, 48 h, read-out: GI
MOLT-4 = assay: Cytotoxicity against human MOLT4 cells at 10 uM after 48 hrs by SRB assay; type: functional; conditions: MOLT-4, 48 h, read-out: GI
NCI-H23 = assay: Cytotoxicity against human NCI-H23 cells at 10 uM after 48 hrs by SRB assay; type: functional; conditions: NCI-H23, 48 h, read-out: GI
SR = assay: Cytotoxicity against human SR cells at 10 uM after 48 hrs by SRB assay; type: functional; conditions: read-out: GI
NCI-H522 = assay: Cytotoxicity against human NCI-H522 cells at 10 uM after 48 hrs by SRB assay; type: functional; conditions: NCI-H522, 48 h, read-out: GI
MDA-MB-231 = assay: Cytotoxicity against human MDA-MB-231 cells at 10 uM after 48 hrs by SRB assay; type: functional; conditions: MDA-MB-231, 48 h, read-out: GI
T47D = assay: Cytotoxicity against human T47D cells at 10 uM after 48 hrs by SRB assay; type: functional; conditions: read-out: GI
UACC-257 = assay: Cytotoxicity against human UACC257 cells at 10 uM after 48 hrs by SRB assay; type: functional; conditions: UACC-257, 48 h, read-out: GI
SF-268 = assay: Cytotoxicity against human SF268 cells at 10 uM after 48 hrs by SRB assay; type: functional; conditions: SF-268, 48 h, read-out: GI
PC-3 = assay: Cytotoxicity against human PC3 cells at 10 uM after 48 hrs by SRB assay; type: functional; conditions: PC-3, 48 h, read-out: GI
COLO 205 = assay: Cytotoxicity against human COLO205 cells at 10 uM after 48 hrs by SRB assay; type: functional; conditions: COLO 205, 48 h, read-out: GI
U-251 = assay: Cytotoxicity against human U251 cells at 10 uM after 48 hrs by SRB assay; type: functional; conditions: U-251, 48 h, read-out: GI
DU-145 = assay: Cytotoxicity against human DU145 cells at 10 uM after 48 hrs by SRB assay; type: functional; conditions: DU-145, 48 h, read-out: GI
HCT-116 = assay: Cytotoxicity against human HCT116 cells at 10 uM after 48 hrs by SRB assay; type: functional; conditions: HCT-116, 48 h, read-out: GI
OVCAR-3 = assay: Cytotoxicity against human OVCAR3 cells at 10 uM after 48 hrs by SRB assay; type: functional; conditions: OVCAR-3, 48 h, read-out: GI
SW-620 = assay: Cytotoxicity against human SW620 cells at 10 uM after 48 hrs by SRB assay; type: functional; conditions: SW-620, 48 h, read-out: GI
HT-29 = assay: Cytotoxicity against human HT-29 cells at 10 uM after 48 hrs by SRB assay; type: functional; conditions: HT-29, 48 h, read-out: GI
A549 = assay: Cytotoxicity against human A549 cells at 10 uM after 48 hrs by SRB assay; type: functional; conditions: A549, 48 h, read-out: GI
Malme-3M = assay: Cytotoxicity against human MALME-3M cells at 10 uM after 48 hrs by SRB assay; type: functional; conditions: read-out: GI
NCI-H460 = assay: Cytotoxicity against human NCI-H460 cells at 10 uM after 48 hrs by SRB assay; type: functional; conditions: NCI-H460, 48 h, read-out: GI
BT-549 = assay: Cytotoxicity against human BT549 cells at 10 uM after 48 hrs by SRB assay; type: functional; conditions: BT-549, 48 h, read-out: GI
MCF7 = assay: Cytotoxicity against human MCF7 cells at 10 uM after 48 hrs by SRB assay; type: functional; conditions: MCF7, 48 h, read-out: GI
NCI-H322M = assay: Cytotoxicity against human NCI-H322M cells at 10 uM after 48 hrs by SRB assay; type: functional; conditions: read-out: GI
NCI/ADR-RES = assay: Cytotoxicity against human NCI/ADR-RES cells at 10 uM after 48 hrs by SRB assay; type: functional; conditions: read-out: GI
OVCAR-5 = assay: Cytotoxicity against human OVCAR5 cells at 10 uM after 48 hrs by SRB assay; type: functional; conditions: OVCAR-5, 48 h, read-out: GI
SK-MEL-5 = assay: Cytotoxicity against human SK-MEL-5 cells at 10 uM after 48 hrs by SRB assay; type: functional; conditions: SK-MEL-5, 48 h, read-out: GI
LOX IMVI = assay: Cytotoxicity against human LOXIMVI cells at 10 uM after 48 hrs by SRB assay; type: functional; conditions: read-out: GI
TK-10 = assay: Cytotoxicity against human TK10 cells at 10 uM after 48 hrs by SRB assay; type: functional; conditions: TK-10, 48 h, read-out: GI
HCT-15 = assay: Cytotoxicity against human HCT15 cells at 10 uM after 48 hrs by SRB assay; type: functional; conditions: HCT-15, 48 h, read-out: GI
786-0 = assay: Cytotoxicity against human 786-0 cells at 10 uM after 48 hrs by SRB assay; type: functional; conditions: 786-0, 48 h, read-out: GI
IGROV-1 = assay: Cytotoxicity against human IGROV1 cells at 10 uM after 48 hrs by SRB assay; type: functional; conditions: IGROV-1, 48 h, read-out: GI
KM12 = assay: Cytotoxicity against human KM12 cells at 10 uM after 48 hrs by SRB assay; type: functional; conditions: KM12, 48 h, read-out: GI
RXF 393 = assay: Cytotoxicity against human RXF393 cells at 10 uM after 48 hrs by SRB assay; type: functional; conditions: RXF 393, 48 h, read-out: GI
SK-MEL-2 = assay: Cytotoxicity against human SK-MEL-2 cells at 10 uM after 48 hrs by SRB assay; type: functional; conditions: SK-MEL-2, 48 h, read-out: GI
SNB-19 = assay: Cytotoxicity against human SNB19 cells at 10 uM after 48 hrs by SRB assay; type: functional; conditions: SNB-19, 48 h, read-out: GI
SN12C = assay: Cytotoxicity against human SN12C cells at 10 uM after 48 hrs by SRB assay; type: functional; conditions: read-out: GI
SNB-75 = assay: Cytotoxicity against human SNB75 cells at 10 uM after 48 hrs by SRB assay; type: functional; conditions: SNB-75, 48 h, read-out: GI
[2] = n-Octanol-phosphate buffer partition coefficient, log P of the compound at pH 7.4 by shake flask method; type: physicochemical

Which results are given for `O=c1[nH]cc(F)c(=O)[nH]1` [FLUOROURACIL]?
inhibition of growth at 10 µM (SF-295): 69.1%; inhibition of growth at 10 µM (OVCAR-4): 59.4%; inhibition of growth at 10 µM (HOP-92): 50.6%; inhibition of growth at 10 µM (UACC-62): 39.7%; inhibition of growth at 10 µM (CCRF-CEM): 57.1%; inhibition of growth at 10 µM (RPMI-8226): 41.4%; inhibition of growth at 10 µM (HOP-62): 47.8%; inhibition of growth at 10 µM [1]: 58.4%; inhibition of growth at 10 µM (NCI-H226): 69.5%; inhibition of growth at 10 µM (ACHN): 39.3%; inhibition of growth at 10 µM (MDA-MB-435): 36.6%; inhibition of growth at 10 µM (SK-OV-3): 77.5%; inhibition of growth at 10 µM (K562): 42.3%; inhibition of growth at 10 µM (HL-60(TB)): 47.9%; inhibition of growth at 10 µM (UO-31): 41.3%; inhibition of growth at 10 µM (CAKI-1): 39.4%; inhibition of growth at 10 µM (MOLT-4): 43.1%; inhibition of growth at 10 µM (NCI-H23): 39%; inhibition of growth at 10 µM (SR): 24.8%; inhibition of growth at 10 µM (NCI-H522): 58%; inhibition of growth at 10 µM (MDA-MB-231): 78.1%; inhibition of growth at 10 µM (T47D): 56.7%; inhibition of growth at 10 µM (UACC-257): 19.5%; inhibition of growth at 10 µM (SF-268): 59%; inhibition of growth at 10 µM (PC-3): 58.2%; inhibition of growth at 10 µM (COLO 205): 40.2%; inhibition of growth at 10 µM (U-251): 50.3%; inhibition of growth at 10 µM (DU-145): 35.5%; inhibition of growth at 10 µM (HCT-116): 17.8%; inhibition of growth at 10 µM (OVCAR-3): 47.4%; inhibition of growth at 10 µM (SW-620): 50.1%; inhibition of growth at 10 µM (HT-29): 27.1%; inhibition of growth at 10 µM (A549): 34.2%; inhibition of growth at 10 µM (Malme-3M): 58.2%; inhibition of growth at 10 µM (NCI-H460): 13%; inhibition of growth at 10 µM (BT-549): 37.8%; inhibition of growth at 10 µM (MCF7): 11.5%; inhibition of growth at 10 µM (NCI-H322M): 59.5%; inhibition of growth at 10 µM (NCI/ADR-RES): 47.6%; inhibition of growth at 10 µM (OVCAR-5): 44.3%; inhibition of growth at 10 µM (SK-MEL-5): 33.7%; inhibition of growth at 10 µM (LOX IMVI): 30.4%; inhibition of growth at 10 µM (TK-10): 66.9%; inhibition of growth at 10 µM (HCT-15): 26.5%; inhibition of growth at 10 µM (786-0): 48.7%; inhibition of growth at 10 µM (IGROV-1): 51.2%; inhibition of growth at 10 µM (KM12): 40.7%; inhibition of growth at 10 µM (RXF 393): 34.3%; inhibition of growth at 10 µM (SK-MEL-2): 95.5%; inhibition of growth at 10 µM (SNB-19): 65.9%; inhibition of growth at 10 µM (SN12C): 54%; inhibition of growth at 10 µM (SNB-75): 65.9%

Which logD [2] does the source give for `C=CCn1c(C)nc2ccc(Nc3nc(N4CCCCC4)nc4ccccc34)cc21` here?
Its logD is 2.72.
